This is an account of results in patent US7763604B2, “Methods for administration of a farnesyl dibenzodiazepinone” (Thallion Pharma Ceuticals, Inc., priority 2005, dated 2010).

Data set [1] concerns rat glioma (C6) tumor xenograft. Put plainly: rat C6 glioblastoma subcutaneous tumor model, antitumor efficacy. In kind it is in vivo, female athymic (nu/nu) nude mice. The procedure: The rat C6 glioblastoma antitumor efficacy study was performed at INSERM U318 (Grenoble, France). The rat C6 glioblastoma subcutaneous tumor model is based on the use of a rat C6 cell line obtained from a rat glial tumor induced by N-nitrosomethylurea (Benda et al. (1968), Science, vol 161, 370-371). These animal studies were done according to ethical guidelines of animal experimentation (Charte du comité d'éthique du CNRS, 2003) and the English “Guidelines for the welfare of animals in experimental neoplasia (Second Edition)” from the United Kingdom Coordinating Committee on Cancer Research (UKCCCR) (Workman et al. (1998), Br. J. Cancer, vol 77, no 1, 1-10). On each dosing day, Formula I stock solutions (24 and 40 mg/mL in 20% ethanol, 20% PEG-400 and 60% Tween 80) were diluted with sterile 5% dextrose in water (D5W) to prepare dosing solutions of 6 mg/mL and 10 mg/mL of Formula I in a vehicle consisting of 5% ethanol, 5% PEG-400, 15% Tween-80, and 75% D5W.
For the rat glioma antitumor efficacy study, female athymic (nu/nu) nude mice (6-7 weeks of age) were inoculated SC with 5×10^6 C6 cells (day 0). Tumor bearing animals were randomized (10 per group) when tumors were palpable (day 6). Group 1 (control group) received drug-free vehicle (5% ethanol, 5% PEG-400, 15% Tween-80, and 75% D5W) IP (5 mL/kg), once daily on days 6-18 (q1d×13). Group 2 received Formula I (6 mg/mL) IP at 20 mg/kg, once daily on days 6 to 13 and then at 10 mg/kg once daily on days 14 to 18. Group 3 received Formula I (6 mg/mL) SC at 30 mg/kg, once daily on days 6 to 13 and then at 15 mg/kg once daily on days 14 to 18. Group 4 received Formula I (10 mg/mL) IV at 100 mg/kg q1d×5 for 2 weeks. Each animal was euthanized when its tumor reached the predetermined endpoint size (˜2,500 mm^3) or at the end of the study (D18). Treatment period was over 13 days, from day 6 to day 18, post tumor cell inoculation. Tumor growth inhibition (TGI) was calculated on day 16 post tumor cell inoculation, at which time some animals from the vehicle control group had to be sacrificed due to tumor burden.
In this model and the models of Examples 3, 6 and 7, tumor growth was followed every other day by measuring tumor length (L) and width (W) using a calliper. Measurements were converted to tumor volumes (TV; mm^3) using the standard formula, TV=(L×W^2)/2. Tumor volume at day n was expressed as relative tumor volume (RTV) according to the following formula RTV=TVn/TV0, where TVn is the tumor volume at day n and TV0 is the tumor volume at day 0. The percentage of tumor growth inhibition (% TGI) was determined by 1−(mean RTV of treated group/mean RTV of control group)×100. […] Statistical analysis was calculated by the two-tailed unpaired t test using the Prism software. […]

Data set [2] relates to P388 murine leukemia cells. Kind of data set: murine P388 leukemia model, survival. In kind it is in vivo. The settings on record: group 2, IV 50 mg/kg in PEG-PG formulation, 10 mice per group. The procedure: Formulation: The compound of Formula I is first dissolved in 1 volume of 90% propylene glycol (PG). This is followed by the addition of 2 volumes of 45% polyethylene glycol 400 (PEG 400). The volume ratio of PEG 400/PG/water is respectively 30:30:40. Compound is injected in a volume of 10 mL/kg.
DBA/2 female mice (6 weeks of age) were injected intraperitoneally (IP) with 1×10^6 P388 murine leukemia cells (day 0). […]
Mice body weights were recorded twice a week. Lethality and behaviour of animals were recorded every day. […] The results are expressed as percent of mean survival time of treated animals over the mean survival time of the control group (treated vs control, T/C %) and as increase life span (mean survival time of treated animals minus that of control animals over the mean survival time of the control group; ILS %).

`CC(C)=CCC/C(C)=C/CC/C(C)=C/CN1C(=O)c2cccc(O)c2Nc2c(O)cc(O)cc21` [Formula I, 10-farnesyl-4,6,8-trihydroxy-dibenzodiazepin-11-one]: the “Maximum body weight loss” value in data set [1] (IP 20 mg/kg (Q1D×8) followed by 10 mg/kg (Q1D×7), Day 13) is reported as 15%; in data set [1] (SC 30 mg/kg (Q1D×8) followed by 15 mg/kg (Q1D×7)), 11%. Further, the “tumor volume relative to the vehicle control” value in data set [1] (IV bolus 100 mg/kg (Q1D×5) over 2 weeks) is given as “No significant difference in tumor volume”. Moreover, in data set [1] (IV group, 100 mg/kg (Q1D×5) over 2 weeks), the body weight loss entry is recorded as “No significant body weight loss”. Moreover, the “mice died one day after treatment due to formulation toxicity” value in data set [2] turned out to be 3 mice.
